79 compounds from US8329675B2, “Inhibitors of fatty acid amide hydrolase” (Infinity Pharmaceuticals, Inc., priority 2006, dated 2012) can be followed below.

One experiment has as its target T1, human FAAH (Homo sapiens, UniProt O00519).
T1 construct: host or cells: COS-7 cells, transient transfection; 13,000 g membrane fraction solubilised in 1% Triton X-100
T1 sequence (O00519 1-579): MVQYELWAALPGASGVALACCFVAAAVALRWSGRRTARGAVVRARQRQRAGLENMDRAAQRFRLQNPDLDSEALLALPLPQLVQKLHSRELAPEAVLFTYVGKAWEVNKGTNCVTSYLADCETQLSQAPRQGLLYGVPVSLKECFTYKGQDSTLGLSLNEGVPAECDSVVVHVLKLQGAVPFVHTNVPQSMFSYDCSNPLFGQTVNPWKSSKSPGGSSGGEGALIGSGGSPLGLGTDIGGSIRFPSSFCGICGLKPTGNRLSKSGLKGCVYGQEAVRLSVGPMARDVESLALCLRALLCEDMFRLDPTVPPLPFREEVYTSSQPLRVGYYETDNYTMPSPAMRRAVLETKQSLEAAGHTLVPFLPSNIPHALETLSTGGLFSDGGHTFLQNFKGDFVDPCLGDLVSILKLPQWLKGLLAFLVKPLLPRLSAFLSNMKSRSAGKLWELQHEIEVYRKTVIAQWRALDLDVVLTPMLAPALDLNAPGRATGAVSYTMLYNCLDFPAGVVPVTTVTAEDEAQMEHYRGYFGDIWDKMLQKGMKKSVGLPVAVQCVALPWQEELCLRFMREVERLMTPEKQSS
In words: Human FAAH biochemical inhibition assay (AMC arachidonoyl amide fluorescence).
Conditions: not given
The protocol:
The resulting solution is added into one dish of 30-40% confluent COS-7 cells in a drop-wise manner. The COS-7 cell dish is subsequently incubated for 48 hours. The cells are then harvested.
Harvest procedure: Media was aspirated from the dishes and the cells rinsed with 10 mL PBS. The PBS was removed and 3 mLs of PBS added to the dish. The dish was scraped to resuspend the cells, and the subsequent cell suspension collected into a 15 ml conical tube. The cells were pelleted by centrifugation at 1200 rpm for 5 minutes in a bench top centrifuge. PBS was removed and the cell pellet snap frozen in liquid nitrogen, store at −80 C.
The pellets were dounce homogenized and then sonicated to produce cell extract. The cell extract was subsequently centrifuged at 1000 g to remove cellular debris. The pellet was discarded and the supernatant centrifuged at 13,000 g for 20 minutes. The pellet contained membrane bound FAAH. The supernatant was discarded and the pellet resolubilized.
(2) Re-solubilization: The fraction of interest, (13,000 g, membrane fraction) was re-suspended in re-suspension buffer (20 mM Hepes pH 7.8, 10% v/v Glycerol, 1 mM EDTA, 1% Triton X-100) (2.3 mL re-suspension and the sample incubated on ice for 1 hour and then centrifuged to at 13,000 g remove any particulate matter. The supernatant containing solubilized human FAAH was aliquoted and snap frozen in liquid nitrogen and stored at −80° C. until use.
FAAH reaction buffer: 50 mM Hepes (pH 7.5), 1 mM EDTA, 0.2% Triton X-100.
Human FAAH assay; Experimental Protocol: A 0.1 mg/mL Human FAAH solution is made up in FAAH reaction buffer, and 24 ul pipetted into a 384 well plate. To this is added 1 uL of a 3 fold serially diluted inhibitor from a DMSO stock solution. The FAAH solution and inhibitor are incubated for 30 minutes at room temperature. The FAAH reaction is initiated by the addition of 25 uL of 40 uM AMC Arachidonoyl Amide in FAAH reaction buffer, yielding a final reaction human FAAH preparation concentration of 0.05 mg/ml and AMC-Arachidonoyl substrate concentration of 20 uM, reaction volume 50 uL. The reaction is allowed to proceed for 4 hours at room temperature. […] The microtiter plate in read in the envision plate reader.
Compound `OB(O)c1ccc(-c2ccccc2)cc1` [Compound I-187] gave an inhibitory constant (Ki) of 10 to 100 nM.

Staying with this experiment, now noted: Table 1, human FAAH (no asterisk); read-out: Activity (Ki).
Turning to `OB(O)c1cc2ccccc2c2ccccc12` [Compound I-183], the Ki was greater than 1000 nM.

For the compound `COc1ccc2cc(B(O)O)ccc2c1` [Compound I-184], the Ki lay within 10 to 100 nM.

Take `OB(O)c1ccc(-c2ccccc2)cc1F` [Compound I-185]: the Ki is less than 10 nM.

Regarding `OB(O)c1cccc(-c2ccccc2)c1` [Compound I-186], the Ki is 10 to 1000 nM.

Take `OB(O)c1ccc(-c2ccccc2)c(F)c1` [Compound I-194]: the inhibition constant (Ki) is less than 10 nM.

Consider `OB(O)c1ccc(-c2ccccc2)s1` [Compound I-196], for which the Ki is 10 to 100 nM.

Consider `OB(O)c1csc2ccccc12` [Compound I-197], for which the Ki was in the range of 10 to 100 nM.

As for `OB(O)c1ccc(-c2ccc(B(O)O)cc2)cc1` [Compound I-198], the Ki was in the range of 10 to 100 nM.

For the compound `O=C(c1ccccc1)c1ccc(B(O)O)cc1` [Compound I-202], the Ki was less than 10 nM.

As to `OB(O)c1ccc(OC(F)(F)F)cc1` [Compound I-204], the Ki was 10 to 100 nM.

Still in this experiment, the particulars now being: Table 2, human FAAH (no asterisk); read-out: Activity (Ki).
Consider `OB(O)c1ccc(OCc2cn(C3CCCC3)nn2)cc1F` [II-1], for which the inhibition constant (Ki) was 10 to 100 nM.

`OB(O)c1ccc(-c2ccc(F)c(F)c2)cc1F` [II-2]: the Ki was less than 10 nM.

Take `Cc1ccc(-c2ccc(B(O)O)c(F)c2)cc1F` [II-3]: the inhibition constant Ki was less than 10 nM.

As to `CN(C)c1cccc(-c2ccc(B(O)O)c(F)c2)c1` [II-4], the Ki is less than 10 nM.

Turning to `O=C1C[N+]2(Cc3ccccc3)CC(=O)O[B-]2(c2ccc(-c3cccc(F)c3)cc2F)O1` (stereo not shown) [II-5], the inhibition constant (Ki) is less than 10 nM.

Regarding `OB(O)c1ccc(OCCc2ccccn2)cc1F` [II-6], the inhibitory constant (Ki) is less than 10 nM.

On to `OB(O)c1ccc(-c2nnc(-c3ccco3)o2)cc1` [II-7], for which the Ki is less than 10 nM.

In the case of `OB(O)c1ccc(OCCc2ccccc2)cc1F` [II-8], the Ki is less than 10 nM.

In the case of `O=C(CCc1ccccc1)c1ccc(B(O)O)cc1` [II-9], the inhibition constant Ki is less than 10 nM.

Consider `OB(O)c1ccc(-c2ccc(-c3ccccc3)c(F)c2)cc1F` [II-10], for which the Ki was less than 10 nM.

As to `OB(O)c1ccc(-c2cccc(F)c2)cc1F` [II-11], the Ki is less than 10 nM.

In the case of `OB(O)c1ccc(Oc2cccc(F)c2)cc1F` [II-12], the Ki was less than 10 nM.

`OB(O)c1ccc(-c2cccnc2)cc1F` [II-13]: the inhibitory constant (Ki) is 10 to 100 nM.

As to `O=C1c2ccccc2C(=O)N1Cc1ccc(B(O)O)cc1` [II-14], the Ki was in the range of 10 to 100 nM.

In the case of `O=C(c1ccccc1)c1cc2cc(B(O)O)ccc2o1` [II-15], the Ki lay within 10 to 100 nM.

`OB(O)c1ccc(-c2cccc3ccccc23)cc1F` [II-16]: the Ki fell in the range of 10 to 100 nM.

Regarding `OB(O)c1ccc(OCCc2cccc(OCCCc3ccccc3)c2)cc1F` [II-17], the inhibition constant (Ki) is less than 10 nM.

On to `CCCCOc1cccc(CCOc2ccc(B(O)O)c(F)c2)c1` [II-18], for which the Ki is less than 10 nM.

Take `O=C(CCCCc1ccccc1)Nc1cccc(CCOc2ccc(B(O)O)c(F)c2)c1` [II-19]: the Ki was less than 10 nM.

On to `OB(O)c1ccc(-c2cccc(F)c2)c(Cl)c1` [II-20], for which the inhibition constant (Ki) fell in the range of 10 to 100 nM.

On to `CCCCCC(=O)Nc1cccc(CCOc2ccc(B(O)O)c(F)c2)c1` [II-21], for which the inhibition constant (Ki) was less than 10 nM.

For `CN(C)CCCC(=O)Nc1cccc(CCOc2ccc(B(O)O)c(F)c2)c1` [II-22], the Ki lay in the range of 10 to 1000 nM.

Take `OB(O)c1csc2c(Cl)cccc12` [II-23]: the inhibitory constant (Ki) was in the range of 10 to 100 nM.

As for `OB(O)c1csc2cc(Cl)ccc12` [II-24], the Ki is 10 to 100 nM.

For the compound `O=C1c2cc(B(O)O)ccc2CC1Cc1ccccc1` (stereo not shown) [II-25], the Ki is less than 10 nM.

On to `OB(O)c1ccc(-c2cccc(-c3ccccc3)c2)cc1F` [II-26], for which the Ki was less than 10 nM.

For the compound `O=C(CCc1ccc(B(O)O)c(F)c1)c1ccccc1` [II-27], the inhibition constant (Ki) is less than 10 nM.

With `OB(O)c1ccc(COCc2ccccc2)cc1F` [II-28], the Ki was less than 10 nM.

As for `O=C1c2ccc(B(O)O)cc2CC1Cc1ccccc1` (stereo not shown) [II-29], the Ki is less than 10 nM.

`OB(O)c1ccc2c(c1)Cc1ccccc1-2` [II-30]: the inhibition constant (Ki) lay within 10 to 100 nM.

On to `OB(O)c1ccc2sc3ccccc3c2c1` [II-31], for which the Ki was in the range of 10 to 1000 nM.

Turning to `Cc1ccc(C)n1-c1ccc(B(O)O)cc1` [II-32], the Ki was greater than 1000 nM.

`Cc1cc(B(O)O)ccc1-c1ccccc1` [II-33]: the Ki lay within 10 to 100 nM.

`Nc1ccc(CCOc2ccc(B(O)O)c(F)c2)cc1` [II-35]: the inhibition constant Ki was less than 10 nM.

Consider `OB(O)c1ccc(-c2nc3ccccc3s2)cc1` [II-36], for which the Ki was greater than 1000 nM.

Take `Nc1cccc(CCOc2ccc(B(O)O)c(F)c2)c1` [II-37]: the Ki is less than 10 nM.

On to `COc1cccc2c(C(O)O)coc12` [II-38], for which the inhibition constant Ki was greater than 1000 nM.

Turning to `CC(C)(C)OC(=O)Nc1ccc(CCOc2ccc(B(O)O)c(F)c2)cc1` [II-39], the Ki lay in the range of 10 to 100 nM.

`O=[N+]([O-])c1cccc(CCOc2ccc(B(O)O)c(F)c2)c1` [II-40]: the Ki is greater than 1000 nM.

As to `Cn1c(-c2ccc(B(O)O)cc2)nc2ccccc21` [II-41], the inhibitory constant (Ki) was greater than 1000 nM.

For the compound `Cc1nc2cc(B(O)O)ccc2s1` [II-42], the Ki fell in the range of 10 to 1000 nM.

On to `OB(O)c1ccc(COCc2ccccc2)c(Cl)c1` [II-43], for which the Ki is less than 10 nM.

Regarding `O=C(CCc1ccccc1)c1ccc(B(O)O)c(F)c1` [II-44], the Ki is less than 10 nM.

As to `Cc1ncc(-c2ccc(B(O)O)cc2)s1` [II-45], the Ki is greater than 1000 nM.

For the compound `OB(O)c1ccc(CCCc2ccccc2)cc1F` [II-46], the inhibition constant (Ki) is less than 10 nM.

For `OB(O)c1ccc2occc2c1` [II-47], the inhibition constant Ki was 10 to 1000 nM.

On to `OB(O)c1ccc(COCc2cc(Cl)cc(Cl)c2)cc1F` [II-48], for which the Ki was less than 10 nM.

As for `OB(O)c1ccc2sccc2c1` [II-49], the inhibitory constant (Ki) lay within 10 to 1000 nM.

`CCOc1ccc(CCOc2ccc(B(O)O)c(F)c2)cc1` [II-50]: the inhibition constant Ki is less than 10 nM.

For `COc1cccc(CCOc2ccc(B(O)O)c(F)c2)c1` [II-51], the Ki was less than 10 nM.

Regarding `OB(O)c1ccc(OCCc2ccc(C(F)(F)F)cc2)cc1F` [II-52], the Ki is less than 10 nM.

With `OB(O)c1ccc(OCCc2cccc(C(F)(F)F)c2)cc1F` [II-53], the Ki is less than 10 nM.

As to `c1ccc(CCCB(Oc2cccc3cccnc23)c2ccc(Oc3ccccc3)cc2)cc1` [II-54], the inhibitory constant (Ki) is less than 10 nM.

For the compound `CCCCB(Oc1cccc2cccnc12)c1ccc(Oc2ccccc2)cc1` [II-55], the Ki was less than 10 nM.

`OB(O)c1ccc(OCCc2ccccc2)c(Cl)c1` [II-57]: the Ki was less than 10 nM.

Take `Cc1sc2ccccc2c1B(O)O` [II-58]: the Ki was greater than 1000 nM.

Turning to `OB(O)c1ccc(-c2ccco2)cc1` [II-59], the Ki lay in the range of 10 to 100 nM.

For the compound `Cc1ccc2ccc(B(O)O)c(F)c2n1` [II-60], the Ki is greater than 1000 nM.

`OB(O)c1ccc(OCCc2cccc(Cl)c2)cc1F` [II-61]: the inhibitory constant (Ki) was less than 10 nM.

For `OB(O)c1ccc(OCCc2ccc(Cl)c(Cl)c2)cc1F` [II-62], the Ki was less than 10 nM.

On to `OB(O)c1ccc(C(OCc2ccccc2)c2ccccc2)cc1` (stereo not shown) [II-63], for which the inhibition constant Ki fell in the range of 10 to 1000 nM.

Take `OB(O)c1ccc(-c2nc3ccccc3[nH]2)cc1` [II-64]: the Ki is greater than 1000 nM.

Turning to `Cc1ccc2scc(B(O)O)c2c1` [II-65], the inhibition constant (Ki) fell in the range of 10 to 1000 nM.

Take `OB(c1ccccc1)c1ccc(Oc2ccccc2)cc1` [II-66]: the Ki lay in the range of 10 to 100 nM.

Take `OB(O)c1ccc2scc(COc3ccccc3)c2c1` [II-67]: the Ki was greater than 1000 nM.

Take `OB(O)c1ccc(CCCc2ccccc2)cc1` [II-68]: the Ki is less than 10 nM.

For `OB(O)c1ccc(OCCN2CCCCC2)cc1F` [II-69], the Ki is 10 to 1000 nM.

Regarding `OB(O)c1ccc(COCc2ccc(C(F)(F)F)cc2)cc1F` [II-71], the Ki was less than 10 nM.
